Measurements taken from patent US20230041743A1, “1,8-NAPHTHYRIDIN-2-ONE COMPOUNDS FOR THE TREATMENT OF AUTOIMMUNE DISEASE” (Hoffmann-La Roche Inc., priority 2019, published 2023).

Biological target: T1, human TLR9 (Homo sapiens, UniProt Q9NR96)
T1 construct: host or cells: HEK293 (HEK-Blue hTLR9)
T1 sequence (Q9NR96 26-1032): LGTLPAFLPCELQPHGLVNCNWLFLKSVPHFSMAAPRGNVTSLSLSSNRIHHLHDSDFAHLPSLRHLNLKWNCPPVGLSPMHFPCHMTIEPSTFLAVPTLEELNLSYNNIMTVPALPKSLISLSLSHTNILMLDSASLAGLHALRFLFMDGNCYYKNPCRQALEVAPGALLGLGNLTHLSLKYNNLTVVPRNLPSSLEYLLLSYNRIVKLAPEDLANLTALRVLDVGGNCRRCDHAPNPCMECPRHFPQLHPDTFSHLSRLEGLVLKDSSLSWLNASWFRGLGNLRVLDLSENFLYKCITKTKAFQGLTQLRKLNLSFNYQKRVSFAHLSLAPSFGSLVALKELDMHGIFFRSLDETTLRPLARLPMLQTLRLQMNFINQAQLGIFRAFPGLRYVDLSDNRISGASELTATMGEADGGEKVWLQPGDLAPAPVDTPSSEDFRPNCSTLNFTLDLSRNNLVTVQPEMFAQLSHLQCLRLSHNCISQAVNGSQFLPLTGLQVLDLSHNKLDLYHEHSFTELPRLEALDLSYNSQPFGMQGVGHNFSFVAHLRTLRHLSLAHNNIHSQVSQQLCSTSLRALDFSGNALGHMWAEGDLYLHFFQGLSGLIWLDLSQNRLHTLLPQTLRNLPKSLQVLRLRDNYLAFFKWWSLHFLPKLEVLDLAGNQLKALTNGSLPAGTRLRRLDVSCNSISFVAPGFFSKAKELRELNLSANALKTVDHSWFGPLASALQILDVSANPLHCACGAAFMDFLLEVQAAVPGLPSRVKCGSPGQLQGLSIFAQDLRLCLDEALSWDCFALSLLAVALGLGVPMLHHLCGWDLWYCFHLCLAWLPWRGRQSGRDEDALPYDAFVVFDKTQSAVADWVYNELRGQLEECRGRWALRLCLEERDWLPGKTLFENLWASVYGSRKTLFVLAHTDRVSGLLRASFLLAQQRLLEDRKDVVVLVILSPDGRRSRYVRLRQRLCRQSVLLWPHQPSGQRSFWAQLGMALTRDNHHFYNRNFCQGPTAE
Assay: HEK293-Blue-hTLR-9 cells assay (SEAP reporter, ODN2006 stimulation)
Assay type: cell-based
Details: HEK293-Blue-hTLR9 cells, ODN2006 ligand, 20 hrs incubation; read-out: HEK/hTLR9 IC50
From the text: HEK293-Blue-hTLR-9 Cells Assay:
A stable HEK293-Blue-hTLR-9 cell line was purchased from InvivoGen (Cat. #: hkb-htlr9, San Diego, Calif., USA). These cells were originally designed for studying the stimulation of human TLR9 by monitoring the activation of NF-κB. A SEAP (secreted embryonic alkaline phosphatase) reporter gene was placed under the control of the IFN-β minimal promoter fused to five NF-κB and AP-1-binding sites. The SEAP was induced by activating NF-κB and AP-1 via stimulating HEK-Blue hTLR9 cells with TLR9 ligands. Therefore the reporter expression was declined by TLR9 antagonist under the stimulation of a ligand, such as ODN2006 (Cat. #: tlrl-2006-1, Invivogen, San Diego, Calif., USA), for incubation of 20 hrs. The cell culture supernatant SEAP reporter activity was determined using QUANTI-Blue™ kit (Cat. #: rep-qb1, Invivogen, San Diego, Calif., USA) at a wavelength of 640 nm, a detection medium that turns purple or blue in the presence of alkaline phosphatase.
HEK293-Blue-hTLR9 cells were incubated at a density of 250,000˜450,000 cells/mL in a volume of 170 μL in a 96-well plate in Dulbecco's Modified Eagle's medium (DMEM) containing 4.5 g/L glucose, 50 U/mL penicillin, […], 2 mM L-glutamine, 10% (v/v) heat-inactivated fetal bovine serum with addition of 20 μL test compound in a serial dilution in the presence of final DMSO at 1% and 10 μL of 20 uM ODN2006 in above DMEM, perform incubation under 37° C. in a CO2 incubator for 20 hrs. Then 20 μL of the supernatant from each well was incubated with 180 μL Quanti-blue substrate solution at 37° C. for 2 h and the absorbance was read at 620˜655 nm using a spectrophotometer. The signaling pathway that TLR9 activation leads to downstream NF-κB activation has been widely accepted, and therefore similar reporter assay was modified for evaluating TLR9 antagonist.

With C[C@@H]1CN(c2cc(=O)n(C)c3ncccc23)C[C@@H]2c3ccc(N4C[C@H]5NCCO[C@@H]5C4)cc3CN12 [Example 6, 4-[(4R,10bS)-8-[(4aR,7aR)-3,4,4a,5,7,7a-hexahydro-2H-pyrrolo[3,4-b][1,4]oxazin-6-yl]-4-methyl-3,4,6,10b-tetrahydro-1H-pyrazino[2,1-a]isoindol-2-yl]-1-methyl-1,8-naphthyridin-2-one] the IC50 was 197 nM.
With C[C@@H]1CN(c2cc(=O)n(C)c3ncccc23)C[C@@H]2c3ccc(N4CCOC[C@H](N)C4)cc3CN12 [Example 22, 4-[(4R,10bS)-8-[(6R)-6-amino-1,4-oxazepan-4-yl]-4-methyl-3,4,6,10b-tetrahydro-1H-pyrazino[2,1-a]isoindol-2-yl]-1-methyl-1,8-naphthyridin-2-one] the IC50 was 113 nM.
Work on C[C@@H]1CN(c2cc(=O)n(C)c3ncccc23)C[C@@H]2c3ccc(N4CC5(CN(C)C5)C4)cc3CN12 [Example 2, 4-[(4R,10bS)-4-methyl-8-(6-methyl-2,6-diazaspiro[3.3]heptan-2-yl)-3,4,6,10b-tetrahydro-1H-pyrazino[2,1-a]isoindol-2-yl]-1-methyl-1,8-naphthyridin-2-one] yielded an IC50 of 136 nM.
C[C@@H]1CN(c2cc(=O)n(C)c3ncccc23)C[C@@H]2c3ccc(N4CC5CCC(C4)N5)cc3CN12 [Example 21, 4-[(4R,10bS)-8-(3,8-diazabicyclo[3.2.1]octan-3-yl)-4-methyl-3,4,6,10b-tetrahydro-1H-pyrazino[2,1-a]isoindol-2-yl]-1-methyl-1,8-naphthyridin-2-one] was tested, and the IC50 was 138 nM.
CO[C@H]1CN(c2ccc3c(c2)CN2[C@H](C)CN(c4cc(=O)n(C)c5ncccc45)C[C@H]32)CC[C@@H]1N [Example 8, 4-[(4R,10bS)-8-[(3S,4S)-4-amino-3-methoxy-1-piperidyl]-4-methyl-3,4,6,10b-tetrahydro-1H-pyrazino[2,1-a]isoindol-2-yl]-1-methyl-1,8-naphthyridin-2-one] was tested, and the IC50 was 226 nM.
C[C@@H]1CNCCN1c1ccc2c(c1)CN1[C@H](C)CN(c3cc(=O)n(C)c4ncccc34)C[C@H]21 [Example 17, 4-[(4R,10bS)-4-methyl-8-[(2R)-2-methylpiperazin-1-yl]-3,4,6,10b-tetrahydro-1H-pyrazino[2,1-a]isoindol-2-yl]-1-methyl-1,8-naphthyridin-2-one] gave an IC50 of 222 nM.
C[C@@H]1CN(c2cc(=O)n(C)c3ncccc23)C[C@@H]2c3ccc(C4CCNCC4)cc3CN12 [Example 24, 4-[(4R,10bS)-4-methyl-8-(4-piperidyl)-3,4,6,10b-tetrahydro-1H-pyrazino[2,1-a]isoindol-2-yl]-1-methyl-1,8-naphthyridin-2-one] showed an IC50 of 156 nM.
CO[C@@H]1CN(c2ccc3c(c2)CN2[C@H](C)CN(c4cc(=O)n(C)c5ncccc45)C[C@H]32)C[C@H]1N [Example 5, 4-[(4R,10bS)-8-[(3R,4R)-3-amino-4-methoxy-pyrrolidin-1-yl]-4-methyl-3,4,6,10b-tetrahydro-1H-pyrazino[2,1-a]isoindol-2-yl]-1-methyl-1,8-naphthyridin-2-one] gave an IC50 of 257 nM.
C[C@@H]1CN(c2cc(=O)n(C)c3ncccc23)C[C@@H]2c3ccc([C@@H]4C[C@H]5COC[C@@H](C4)N5)cc3CN12 [Example 28B, 4-[(4R,10bS)-4-methyl-8-(exo-3-oxa-9-azabicyclo[3.3.1]nonan-7-yl)-3,4,6,10b-tetrahydro-1H-pyrazino[2,1-a]isoindol-2-yl]-1-methyl-1,8-naphthyridin-2-one] showed an IC50 of 255 nM.
In the case of C[C@@H]1CN(c2cc(=O)n(C)c3ncccc23)C[C@@H]2c3ccc(N4CCNCC4)cc3CN12 [Example 12, 4-[(4R,10bS)-4-methyl-8-piperazin-1-yl-3,4,6,10b-tetrahydro-1H-pyrazino[2,1-a]isoindol-2-yl]-1-methyl-1,8-naphthyridin-2-one], the IC50 is reported as 192 nM.
Work on C[C@@H]1CN(c2cc(=O)n(C)c3ncccc23)C[C@@H]2c3ccc(N4C[C@H]5C[C@@H]4CN5)cc3CN12 [Example 20, 4-[(4R,10bS)-8-[(1R,4R)-2,5-diazabicyclo[2.2.1]heptan-2-yl]-4-methyl-3,4,6,10b-tetrahydro-1H-pyrazino[2,1-a]isoindol-2-yl]-1-methyl-1,8-naphthyridin-2-one] yielded an IC50 of 96 nM.
C[C@@H]1CN(c2cc(=O)n(C)c3ncccc23)C[C@@H]2c3ccc(N4CCC[C@](C)(N)C4)cc3CN12 [Example 15, 4-[(4R,10bS)-8-[(3S)-3-amino-3-methyl-1-piperidyl]-4-methyl-3,4,6,10b-tetrahydro-1H-pyrazino[2,1-a]isoindol-2-yl]-1-methyl-1,8-naphthyridin-2-one] showed an IC50 of 84 nM.
